Like-named read-outs stand apart in the source and are kept apart here.
Experiments:
[1] = target: N-terminally truncated Abl kinase; test: Abl kinase activity inhibition assay, coupled enzyme; format: biochemical; details: read-out: Abl (wild) Ki; 110 μM ATP, 30° C., 21 nM Abl kinase
Description: Final concentrations of the components of the coupled enzyme system were 2.5 mM phosphoenolpyruvate, 200 μM NADH, […] pyruvate kinase and 20 μg/ml lactate dehydrogenase.
An assay stock buffer solution was prepared containing all of the reagents listed above with the exception of ATP and the test compound of interest. […] Rates of reaction were obtained using a Molecular Devices Spectramax plate reader (Sunnyvale, Calif.) over 10 min at 30° C. The Ki values were determined from the residual rate data as a function of inhibitor concentration using nonlinear regression (Prism 3.0, Graphpad Software, San Diego, Calif.).

JAK3 = target: T1, JAK3 (Homo sapiens, UniProt P52333); test: biochemical
T1 sequence (P52333 1-1124): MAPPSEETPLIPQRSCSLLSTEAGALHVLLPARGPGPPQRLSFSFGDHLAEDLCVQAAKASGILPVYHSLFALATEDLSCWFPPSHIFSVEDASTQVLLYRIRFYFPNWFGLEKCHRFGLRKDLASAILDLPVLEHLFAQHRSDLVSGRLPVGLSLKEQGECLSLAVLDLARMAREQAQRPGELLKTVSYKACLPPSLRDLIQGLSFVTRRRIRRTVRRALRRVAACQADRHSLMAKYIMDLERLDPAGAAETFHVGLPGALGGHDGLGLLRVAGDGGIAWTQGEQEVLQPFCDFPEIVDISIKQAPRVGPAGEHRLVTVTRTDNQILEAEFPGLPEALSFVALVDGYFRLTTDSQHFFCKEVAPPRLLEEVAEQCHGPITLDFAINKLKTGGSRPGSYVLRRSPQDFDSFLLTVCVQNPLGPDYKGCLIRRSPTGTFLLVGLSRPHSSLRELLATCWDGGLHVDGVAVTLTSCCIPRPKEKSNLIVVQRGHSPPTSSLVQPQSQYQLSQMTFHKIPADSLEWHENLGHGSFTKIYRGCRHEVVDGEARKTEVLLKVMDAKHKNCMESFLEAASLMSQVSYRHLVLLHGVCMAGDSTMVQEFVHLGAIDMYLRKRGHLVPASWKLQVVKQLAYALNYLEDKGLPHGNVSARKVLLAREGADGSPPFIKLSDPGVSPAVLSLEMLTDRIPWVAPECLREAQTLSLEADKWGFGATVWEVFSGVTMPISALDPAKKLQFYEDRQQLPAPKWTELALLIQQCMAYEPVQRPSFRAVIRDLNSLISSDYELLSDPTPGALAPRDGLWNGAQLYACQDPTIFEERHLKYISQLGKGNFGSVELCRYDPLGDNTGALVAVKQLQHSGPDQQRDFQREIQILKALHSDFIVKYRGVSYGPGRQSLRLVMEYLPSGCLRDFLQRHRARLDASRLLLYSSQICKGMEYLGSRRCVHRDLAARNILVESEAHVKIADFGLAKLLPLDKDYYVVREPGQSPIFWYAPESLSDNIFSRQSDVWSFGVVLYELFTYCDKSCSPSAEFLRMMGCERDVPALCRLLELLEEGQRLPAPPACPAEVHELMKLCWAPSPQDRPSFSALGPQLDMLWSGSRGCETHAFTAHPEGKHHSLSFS

MLK1 = MLK1 (Homo sapiens, UniProt P80192); test: MLK1 inhibition assay; format: biochemical; details: ATP at or close to Km
Excerpt: (§1) Compound I-1 was screened for its ability to inhibit Arg (Abl-2), FGFR1, MELK, MLK1, MuSK, Ret, and TrkA using screening methods known to one of ordinary skill in the art. All of the above enzymes were screened with ATP concentrations at or close to the Km for ATP.

TrkA = TrkA (Homo sapiens, UniProt P04629); test: TrkA inhibition assay; format: biochemical; details: ATP at or close to Km
Excerpt: as §1

Arg (Abl-2) = Arg (Abl-2) (Homo sapiens, UniProt P42684); test: Arg (Abl-2) inhibition assay; format: biochemical; details: ATP at or close to Km
Arg (Abl-2), sequence (P42684 whole entry, species assumed): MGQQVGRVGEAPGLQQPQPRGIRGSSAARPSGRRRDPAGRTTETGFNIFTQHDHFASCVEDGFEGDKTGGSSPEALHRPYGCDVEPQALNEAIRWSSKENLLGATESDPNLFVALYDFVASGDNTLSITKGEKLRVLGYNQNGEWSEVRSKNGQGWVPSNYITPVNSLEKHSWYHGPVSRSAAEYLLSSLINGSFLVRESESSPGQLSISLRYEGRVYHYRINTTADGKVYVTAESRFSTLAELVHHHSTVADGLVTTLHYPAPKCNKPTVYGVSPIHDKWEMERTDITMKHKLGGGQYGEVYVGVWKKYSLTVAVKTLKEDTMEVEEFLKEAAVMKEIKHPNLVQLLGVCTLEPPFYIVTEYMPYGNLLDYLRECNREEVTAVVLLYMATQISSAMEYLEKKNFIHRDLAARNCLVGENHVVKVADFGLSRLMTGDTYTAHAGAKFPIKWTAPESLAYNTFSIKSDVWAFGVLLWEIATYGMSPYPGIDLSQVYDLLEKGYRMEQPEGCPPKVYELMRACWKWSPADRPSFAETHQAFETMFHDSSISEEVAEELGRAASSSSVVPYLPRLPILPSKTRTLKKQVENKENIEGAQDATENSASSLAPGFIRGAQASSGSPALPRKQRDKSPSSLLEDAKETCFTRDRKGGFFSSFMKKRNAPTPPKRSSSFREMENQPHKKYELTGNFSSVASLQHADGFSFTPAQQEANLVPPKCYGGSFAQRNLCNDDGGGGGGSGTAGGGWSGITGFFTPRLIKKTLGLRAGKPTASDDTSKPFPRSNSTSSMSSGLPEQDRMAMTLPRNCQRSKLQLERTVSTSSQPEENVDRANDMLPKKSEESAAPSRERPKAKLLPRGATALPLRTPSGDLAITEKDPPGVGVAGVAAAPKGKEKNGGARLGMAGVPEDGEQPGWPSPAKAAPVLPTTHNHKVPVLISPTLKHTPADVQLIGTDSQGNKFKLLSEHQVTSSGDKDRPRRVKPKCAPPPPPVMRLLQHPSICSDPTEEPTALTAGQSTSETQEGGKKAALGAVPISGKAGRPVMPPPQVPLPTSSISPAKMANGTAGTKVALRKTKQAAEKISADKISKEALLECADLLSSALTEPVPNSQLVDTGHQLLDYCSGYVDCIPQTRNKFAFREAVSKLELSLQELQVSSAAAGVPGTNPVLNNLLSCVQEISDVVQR
Excerpt: as §1

Ret = Ret (Homo sapiens, UniProt P07949); test: Ret inhibition assay; format: biochemical; details: ATP at or close to Km
Ret, sequence (P07949 29-1114, species assumed): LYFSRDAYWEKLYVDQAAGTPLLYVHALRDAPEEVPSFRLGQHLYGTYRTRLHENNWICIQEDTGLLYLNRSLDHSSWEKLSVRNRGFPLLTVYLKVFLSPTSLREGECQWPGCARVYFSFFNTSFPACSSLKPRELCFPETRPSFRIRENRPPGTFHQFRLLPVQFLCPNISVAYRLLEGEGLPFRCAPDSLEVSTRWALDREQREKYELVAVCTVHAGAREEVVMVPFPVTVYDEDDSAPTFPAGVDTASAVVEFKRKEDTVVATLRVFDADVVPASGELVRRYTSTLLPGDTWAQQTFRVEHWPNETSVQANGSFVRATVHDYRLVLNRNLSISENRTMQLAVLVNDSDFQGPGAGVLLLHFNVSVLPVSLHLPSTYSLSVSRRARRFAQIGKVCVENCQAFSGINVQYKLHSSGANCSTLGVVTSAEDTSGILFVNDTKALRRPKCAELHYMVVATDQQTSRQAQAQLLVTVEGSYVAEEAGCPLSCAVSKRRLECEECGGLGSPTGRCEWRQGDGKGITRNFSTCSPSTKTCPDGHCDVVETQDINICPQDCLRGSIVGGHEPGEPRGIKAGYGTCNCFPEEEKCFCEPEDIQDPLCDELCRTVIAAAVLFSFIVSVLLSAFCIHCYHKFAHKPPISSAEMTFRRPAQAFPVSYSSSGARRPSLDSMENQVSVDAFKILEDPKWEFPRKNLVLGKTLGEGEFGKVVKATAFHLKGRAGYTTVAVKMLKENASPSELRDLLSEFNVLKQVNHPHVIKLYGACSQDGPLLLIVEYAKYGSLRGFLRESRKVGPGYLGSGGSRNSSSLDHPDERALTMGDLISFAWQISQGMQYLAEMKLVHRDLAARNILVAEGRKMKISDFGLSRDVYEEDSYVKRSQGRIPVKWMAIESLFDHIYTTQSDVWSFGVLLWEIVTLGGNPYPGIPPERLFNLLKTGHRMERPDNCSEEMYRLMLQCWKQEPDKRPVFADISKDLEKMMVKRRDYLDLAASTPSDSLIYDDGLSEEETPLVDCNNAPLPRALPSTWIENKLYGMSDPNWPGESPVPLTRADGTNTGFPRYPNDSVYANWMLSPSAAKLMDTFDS
Excerpt: as §1

MELK = MELK (Homo sapiens, UniProt Q14680); test: MELK inhibition assay; format: biochemical; details: ATP at or close to Km
MELK, sequence (Q14680 whole entry, species assumed): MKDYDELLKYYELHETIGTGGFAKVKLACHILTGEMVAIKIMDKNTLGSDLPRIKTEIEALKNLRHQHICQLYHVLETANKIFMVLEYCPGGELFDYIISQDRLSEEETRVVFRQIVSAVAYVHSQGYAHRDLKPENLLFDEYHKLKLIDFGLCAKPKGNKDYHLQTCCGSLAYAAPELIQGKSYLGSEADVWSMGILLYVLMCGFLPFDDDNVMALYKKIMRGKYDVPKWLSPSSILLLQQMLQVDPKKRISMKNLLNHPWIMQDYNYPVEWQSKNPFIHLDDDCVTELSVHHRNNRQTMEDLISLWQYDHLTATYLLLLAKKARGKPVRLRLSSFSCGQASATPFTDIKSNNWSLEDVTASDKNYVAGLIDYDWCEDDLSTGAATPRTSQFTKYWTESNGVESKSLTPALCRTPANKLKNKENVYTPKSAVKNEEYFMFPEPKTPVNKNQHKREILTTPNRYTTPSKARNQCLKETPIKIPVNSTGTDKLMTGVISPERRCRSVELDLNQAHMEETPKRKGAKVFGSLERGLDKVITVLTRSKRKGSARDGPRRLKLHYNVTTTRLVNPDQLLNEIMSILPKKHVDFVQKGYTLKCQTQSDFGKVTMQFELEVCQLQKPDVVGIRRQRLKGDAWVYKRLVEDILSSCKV
Excerpt: as §1

FGFR1 = FGFR1 (Homo sapiens, UniProt P11362); test: FGFR1 inhibition assay; format: biochemical; details: ATP at or close to Km
FGFR1, sequence (P11362 22-822, species assumed): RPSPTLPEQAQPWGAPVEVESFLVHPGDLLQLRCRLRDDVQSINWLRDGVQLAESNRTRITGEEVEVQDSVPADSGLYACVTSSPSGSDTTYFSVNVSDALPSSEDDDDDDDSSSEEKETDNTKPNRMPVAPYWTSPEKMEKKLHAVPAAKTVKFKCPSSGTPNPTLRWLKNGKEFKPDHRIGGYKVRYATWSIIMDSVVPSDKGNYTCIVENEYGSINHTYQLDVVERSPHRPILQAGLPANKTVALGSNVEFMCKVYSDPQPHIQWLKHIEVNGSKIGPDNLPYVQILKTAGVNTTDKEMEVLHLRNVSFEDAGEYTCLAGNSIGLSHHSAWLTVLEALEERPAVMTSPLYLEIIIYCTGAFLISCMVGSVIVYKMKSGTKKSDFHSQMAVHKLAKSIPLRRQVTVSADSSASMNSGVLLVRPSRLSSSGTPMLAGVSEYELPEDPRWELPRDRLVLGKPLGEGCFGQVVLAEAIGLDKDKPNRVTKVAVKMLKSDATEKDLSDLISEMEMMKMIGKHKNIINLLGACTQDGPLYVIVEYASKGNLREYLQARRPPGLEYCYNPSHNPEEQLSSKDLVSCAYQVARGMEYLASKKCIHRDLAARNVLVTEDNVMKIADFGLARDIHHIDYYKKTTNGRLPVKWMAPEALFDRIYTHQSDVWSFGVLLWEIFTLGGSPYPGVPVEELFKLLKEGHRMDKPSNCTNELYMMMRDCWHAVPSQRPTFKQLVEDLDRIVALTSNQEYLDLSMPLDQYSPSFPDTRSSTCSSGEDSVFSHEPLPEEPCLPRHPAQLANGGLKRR
Excerpt: as §1

MuSK = target: T2, MuSK (Homo sapiens, UniProt O15146); test: MuSK inhibition assay; format: biochemical; details: ATP at or close to Km
T2 sequence (O15146 24-869): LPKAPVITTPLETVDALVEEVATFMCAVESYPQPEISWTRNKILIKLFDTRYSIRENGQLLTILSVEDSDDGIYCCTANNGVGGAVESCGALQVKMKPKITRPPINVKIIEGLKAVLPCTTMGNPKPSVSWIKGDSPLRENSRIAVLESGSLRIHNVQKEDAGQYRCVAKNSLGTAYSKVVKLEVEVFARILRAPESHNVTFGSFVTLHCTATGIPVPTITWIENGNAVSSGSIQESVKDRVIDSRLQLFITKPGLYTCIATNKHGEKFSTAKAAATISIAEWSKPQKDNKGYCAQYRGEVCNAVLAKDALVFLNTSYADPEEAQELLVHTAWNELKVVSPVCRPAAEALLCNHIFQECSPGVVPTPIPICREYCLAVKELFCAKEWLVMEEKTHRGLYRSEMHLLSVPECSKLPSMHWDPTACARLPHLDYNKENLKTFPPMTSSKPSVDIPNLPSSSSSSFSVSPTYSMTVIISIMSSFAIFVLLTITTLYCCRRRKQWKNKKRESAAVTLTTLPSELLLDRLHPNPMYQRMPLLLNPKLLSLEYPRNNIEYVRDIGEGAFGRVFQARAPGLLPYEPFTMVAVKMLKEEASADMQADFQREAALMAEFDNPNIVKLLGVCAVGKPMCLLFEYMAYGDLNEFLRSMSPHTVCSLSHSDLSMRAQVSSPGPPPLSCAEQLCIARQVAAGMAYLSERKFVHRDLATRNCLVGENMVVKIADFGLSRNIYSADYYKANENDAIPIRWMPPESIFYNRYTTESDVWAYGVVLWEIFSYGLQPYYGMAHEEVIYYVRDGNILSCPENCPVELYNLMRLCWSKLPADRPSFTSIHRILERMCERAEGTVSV
Excerpt: as §1

[2] = 5 μM ATP, 1 μM poly(Glu)4Tyr, 25° C., 1 nM JAK3, read-out: JAK-3 Ki

N-terminally truncated Abl kinase, sequence (P00519 28-1130): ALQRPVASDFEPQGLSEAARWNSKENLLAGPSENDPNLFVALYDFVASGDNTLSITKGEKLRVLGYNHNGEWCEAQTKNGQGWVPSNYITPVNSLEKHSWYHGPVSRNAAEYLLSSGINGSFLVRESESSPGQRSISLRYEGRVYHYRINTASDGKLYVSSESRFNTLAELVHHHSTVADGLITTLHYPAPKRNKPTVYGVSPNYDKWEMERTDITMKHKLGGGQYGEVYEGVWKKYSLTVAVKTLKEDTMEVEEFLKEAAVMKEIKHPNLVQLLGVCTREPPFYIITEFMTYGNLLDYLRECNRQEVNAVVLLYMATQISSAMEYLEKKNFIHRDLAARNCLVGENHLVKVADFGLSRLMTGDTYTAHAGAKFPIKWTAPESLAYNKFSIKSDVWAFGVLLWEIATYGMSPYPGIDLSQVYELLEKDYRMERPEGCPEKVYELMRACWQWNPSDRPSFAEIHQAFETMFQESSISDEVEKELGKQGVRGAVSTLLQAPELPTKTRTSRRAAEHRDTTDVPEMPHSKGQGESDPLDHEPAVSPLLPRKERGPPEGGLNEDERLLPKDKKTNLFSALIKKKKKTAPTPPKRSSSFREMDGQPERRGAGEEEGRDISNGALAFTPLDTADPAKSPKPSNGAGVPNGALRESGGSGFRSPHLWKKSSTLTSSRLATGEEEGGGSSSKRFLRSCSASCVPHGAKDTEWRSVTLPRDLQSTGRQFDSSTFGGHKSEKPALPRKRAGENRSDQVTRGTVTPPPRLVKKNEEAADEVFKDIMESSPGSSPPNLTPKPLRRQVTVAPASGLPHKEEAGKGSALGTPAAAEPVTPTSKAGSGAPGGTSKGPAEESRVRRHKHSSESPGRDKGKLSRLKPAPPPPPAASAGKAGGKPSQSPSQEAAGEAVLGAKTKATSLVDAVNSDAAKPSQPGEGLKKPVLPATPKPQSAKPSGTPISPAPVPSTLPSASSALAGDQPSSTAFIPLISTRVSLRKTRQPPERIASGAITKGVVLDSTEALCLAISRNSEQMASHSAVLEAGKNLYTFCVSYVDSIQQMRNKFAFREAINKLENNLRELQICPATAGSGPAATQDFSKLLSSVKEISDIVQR

| Compound | Ki [1] | Ki (JAK3) | other results |
| --- | --- | --- | --- |
| CCc1cccc(C(=O)Nc2ccc(Sc3nc(Nc4cc(C)[nH]n4)cc(N4CCC4)n3)cc2)c1Cl [Compound I-22] | – | 62 nM | – |
| O=C(Nc1ccc(Sc2nc(Nc3cc(C4CC4)[nH]n3)cc(N3CCC3)n2)cc1)c1ccccc1Cl [Compound I-17] | – | – | Ki (JAK3; [2]): 79 nM |
| Cc1cc(Nc2cc(N3CCC3)nc(Sc3ccc(NC(=O)c4cccc(C)c4Cl)cc3)n2)n[nH]1 [Compound I-20] | – | 61 nM | – |
| Cc1cc(Nc2cc(N3CCC3)nc(Sc3ccc(NC(=O)c4cccc(Cl)c4F)cc3)n2)n[nH]1 [Compound I-15] | 31 nM | – | Ki (JAK3; [2]): 120 nM |
| Cc1cc(Nc2cc(N3CCC3)nc(Sc3ccc(NC(=O)c4cccc(C(F)(F)F)c4F)cc3)n2)n[nH]1 [Compound I-13] | – | 220 nM | – |
| Cc1cc(Nc2cc(N3CCC3)nc(Sc3ccc(NC(=O)c4c(Cl)cccc4Cl)cc3)n2)n[nH]1 [Compound I-11] | 21 nM | – | – |

Continued, in another order:

| Ki [1] | Ki (JAK3) | Compound | other results |
| --- | --- | --- | --- |
| 36 nM | – | Cc1cc(Nc2cc(N3CCC3)nc(Sc3ccc(NC(=O)c4ccccc4C(F)(F)F)cc3)n2)[nH]n1 [Compound I-14] | – |
| 68 nM | – | Cc1cc(Nc2cc(N3CCC3)nc(Sc3ccc(NC(=O)c4ccccc4C)cc3)n2)[nH]n1 [Compound I-5] | – |
| 36 nM | 160 nM | Cc1cc(Nc2cc(N3CCC3)nc(Sc3ccc(NC(=O)c4ccccc4Cl)cc3)n2)[nH]n1 [Compound I-1, N-{4-[4-Azetidin-1-yl-6-(5-methyl-2H-pyrazol-3-ylamino)-pyrimidin-2-ylsulfanyl]-phenyl}-2-chloro-benzamide] | Ki (MLK1): < 18 nM; Ki (TrkA): < 6 nM; Ki (Arg (Abl-2)): 12 nM; Ki (Ret): 8 nM; Ki (MELK): 17 nM; Ki (FGFR1): 5 nM; Ki (MuSK): 70 nM |
| 7 nM | – | Cc1cc(Nc2cc(N3CCC3)nc(Sc3ccc(NC(=O)c4c(F)cccc4F)cc3)n2)[nH]n1 [Compound I-2, N-{4-[4-Azetidin-1-yl-6-(5-methyl-2H-pyrazol-3-ylamino)-pyrimidin-2-ylsulfanyl]-phenyl}-2,6-Difluoro-benzamide] | – |
